Experimental data as given in patent publication US12295936B2, “Immunomodulating urea azalides” (Zoetis Services LLC, priority 2020, dated 2025).
Entries after “also recorded” stand apart in the source; their conditions may differ. Read-outs that look alike come from different tables or passages of the source.

How the values were obtained:
[1] = test system: M. haemolytica (OSU-012103-BHI); conditions: sc
[2] = test system: M. haemolytica (OSU-012103-BHI); test: In vivo bovine M. haemolytica intratracheal lung infection challenge model; conditions: for Significance to T01, mortality: p≤0.2; for Mortality/Euthanization No, % / Mortality/Euthanization No, Number: surviving animals
[3] = test system: P. multocida 46572; test: In vivo mouse lung infection challenge model (murine efficacy); design: species or system CD-1 female mice; conditions: for Mouse Murine Percent Survival: 20 mg/kg subcutaneous, P. multocida challenge, harmonized against the comparative vehicle survival rate; for clinical efficacy in murine P. multocida infection: airway tissues collected longitudinally for transcriptomic analysis
How it was run: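 CD-1 female mice challenged intranasally with P. multocida 46572 at mid-log phase (target 5×10^2 CFU/mouse). Compounds given subcutaneously at 20 mg/kg in buffered (~pH 5.4) propylene glycol/monothioglycerol/water. Mortality observed Days 1–10, analysed by generalized mixed model; survival harmonized against vehicle survival rate.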

[4] = test system: IL-6; test: LPS-stimulated whole bovine blood assay, MSD cytokine detection; format: cell-based; conditions: for IC50: Bos taurus, LPS-stimulated bovine whole blood, read-out: IL-6 (IC50 μM)
From the text: In order to correlate RNA sequencing data to cytokine changes the whole blood assay was utilized. […] The enhancement result represents an overall stimulation of cytokine levels due to cellular stress or potential toxicity with increasing concentrations of the compound, representing a typical bell shape response curve for immunomodulatory activity.

[5] = test system: P. multocida; test: In-vitro MIC model (CLSI broth micro-dilution); conditions: Pasteurella multocida
[6] = test system: IL-6; test: Plasma IL-6 biomarker in bovine M. haemolytica challenge; conditions: for IL-6 levels (plasma) in bovine M. haemolytica challenge: in vivo
[7] = test system: TNF-α; test: LPS-stimulated whole bovine blood assay, MSD cytokine detection; format: cell-based; conditions: for IC50: Bos taurus
[8] = test system: bovine respiratory disease (BRD); test: Natural bovine respiratory disease (field) studies; format: in vivo, cattle
[9] = test system: H. somni; test: In-vitro MIC model (CLSI broth micro-dilution); conditions: Histophilus somni
[10] = test system: CD163; test: CD163 expression by flow cytometry, blood of treated/challenged cattle; conditions: blood macrophages
[11] = test system: bovine alveolar macrophages; test: Phospholipidosis assay (HCS LipidTox, Incucyte); format: cell-based; conditions: Bos taurus, Macrophage
From the text: The second immunomodulation in vitro assay evaluated the potential for phospholipidosis with the compounds of the invention in bovine alveolar macrophages. This assay is utilized to determine cellular uptake of the compounds of the invention in relevant bovine and murine cell types. This assay utilized Invitrogen's commercially available HCS LipidTox detection kit with an Incucyte real time fluorescence reader to observe variations in EC50 and phospholipidosis profiles based on compound concentrations. Murine intraperitoneal macrophages were also used in the same assay to evaluate species variability for potential correlation with mouse efficacy results. The combination of the bovine whole blood assay and phospholipidosis assays enabled rank ordering for progression into in vivo testing in the murine challenge model.

[12] = Table 9 study, T03: 0.5 mg/kg subcutaneous
[13] = Table 9 study, T04: 2.5 mg/kg subcutaneous
[14] = 4 independent studies with multiple blood donors, FIG. 4
[15] = 32 hours post challenge, dosed 24 hours prior to challenge
[16] = LPS-stimulated bovine whole blood, read-out: TNF-α (IC50 μM)
[17] = LPS-stimulated whole bovine blood, read-out: TNF-α IC50
[18] = Table 7 study, T02: 0.5 mg/kg subcutaneous
[19] = Table 7 study, T03: 2.5 mg/kg subcutaneous

Structure (SMILES): CCCNC[C@]1(O)[C@H](C)O[C@@H](O[C@H]2[C@H](C)[C@@H](O[C@@H]3O[C@H](C)C[C@H](N(C)C(=O)N(C)c4ccccc4)[C@H]3O)[C@](C)(O)C[C@@H](C)CN[C@H](C)[C@@H](O)[C@](C)(O)[C@@H](CC)OC(=O)[C@@H]2C)C[C@@]1(C)OC [Example H-11, 1-((2S,3R,4S,6R)-2-(((2R,3S,4R,5R,8R,10R,11R,12S,13S,14R)-2-ethyl-3,4,10-trihydroxy-13-(((2R,4R,5S,6S)-5-hydroxy-4-methoxy-4,6-dimethyl-5-((propylamino)methyl)tetrahydro-2H-pyran-2-yl)oxy)-3,5,8,10,12,14-hexamethyl-15-oxo-1-oxa-6-azacyclopentadecan-11-yl)oxy)-3-hydroxy-6-methyltetrahydro-2H-pyran-4-yl)-1,3-dimethyl-3-phenylurea]
- Back Transform LS % Lung with Lesions ([1]; 0.5 mg/kg): 28%
- Range % Lung with Lesions ([1]; 0.5 mg/kg): 0 to 68%
- Back Transform LS % Lung with Lesions ([1]; 2.5 mg/kg): 21%
- Range % Lung with Lesions ([1]; 2.5 mg/kg): 2 to 70%
- Significance at .20 level to T01, lung lesions ([2]; Table 8 study, T03: 0.5 mg/kg subcutaneous): No
- Significance at .20 level to T01, lung lesions ([2]; Table 8 study, T04: 2.5 mg/kg subcutaneous): Yes
- Mortality/Euthanization Yes, % [2, 12]: 16.7%
- Mortality/Euthanization Yes, Number [2, 12]: 4
- Significance to T01, mortality [2, 12]: Yes
- Mortality/Euthanization No, % [2, 12]: 83.3%
- Mortality/Euthanization No, Number [2, 12]: 20
- Mortality/Euthanization Yes, % [2, 13]: 25.0%
- Mortality/Euthanization Yes, Number [2, 13]: 6
- Significance to T01, mortality [2, 13]: No
- Mortality/Euthanization No, % [2, 13]: 75.0%
- Mortality/Euthanization No, Number [2, 13]: 18
- number of blood neutrophils ([2]; treatment 24 hours prior to challenge, FIG. 8): reduced
- Mouse Murine Percent Survival [3]: 36%
- clinical efficacy in murine P. multocida infection [3]: clinically efficacious
- expression of IL-6, LPS stimulated whole bovine blood [4, 14]: dose dependent reduction
- IC50 [4]: 22 µM
- MIC [5]: > 64 µg/mL
- reduction in IL-6 levels (geometric mean) [6, 15]: 51%
- reduction in IL-6 levels (median value) [6, 15]: 43%
- IL-6 levels (plasma) in bovine M. haemolytica challenge [6]: reduced; also recorded: downregulated
- expression of TNF-α, LPS stimulated whole bovine blood [7, 14]: dose dependent reduction
- IC50 [7, 16]: 8 µM
- IC50 [7, 17]: 8 µM
- Treatment success ([8]; 0.03 mg/kg (T02) subcutaneous Day 0, natural field study to Day 7, saline 32.1%): 58.3%
- Treatment success ([8]; 0.1 mg/kg (T03) subcutaneous Day 0, natural field study to Day 7, saline 32.1%): 60.7%
- Treatment success ([8]; 0.3 mg/kg (T04) subcutaneous Day 0, natural field study to Day 7, saline 32.1%): 51.2%
- Treatment success ([8]; 1 mg/kg (T05) subcutaneous Day 0, natural field study to Day 7, saline 32.1%): 40.5%
- MIC [9]: > 64 µg/mL
- CD163 expression in treated cattle [10]: reduced; also recorded: downregulated
- EC50 [11]: 4 µM

Structure (SMILES): CCCNC[C@]1(O)[C@H](C)O[C@@H](O[C@H]2[C@H](C)[C@@H](O[C@@H]3O[C@H](C)C[C@H](N(C)C(=O)Nc4ccccc4)[C@H]3O)[C@](C)(O)C[C@@H](C)CN[C@H](C)[C@@H](O)[C@](C)(O)[C@@H](CC)OC(=O)[C@@H]2C)C[C@@]1(C)OC [Example H-91, 1-((2S,3R,4S,6R)-2-(((2R,3S,4R,5R,8R,10R,11R,12S,13S,14R)-2-ethyl-3,4,10-trihydroxy-13-(((2R,4R,5S,6S)-5-hydroxy-4-methoxy-4,6-dimethyl-5-((propylamino)methyl)tetrahydro-2H-pyran-2-yl)oxy)-3,5,8,10,12,14-hexamethyl-15-oxo-1-oxa-6-azacyclopentadecan-11-yl)oxy)-3-hydroxy-6-methyltetrahydro-2H-pyran-4-yl)-1-methyl-3-phenylurea]
- Back Transform LS % Lung with Lesions ([1]; 0.5 mg/kg): 8%
- Range % Lung with Lesions ([1]; 0.5 mg/kg): 0 to 39%
- Back Transform LS % Lung with Lesions ([1]; 2.5 mg/kg): 9%
- Range % Lung with Lesions ([1]; 2.5 mg/kg): 0 to 58%
- Significance at .20 level to T01, lung lesions ([2]; Table 6 study, T02: 0.5 mg/kg subcutaneous): Yes
- Significance at .20 level to T01, lung lesions ([2]; Table 6 study, T03: 2.5 mg/kg subcutaneous): Yes
- Mortality/Euthanization Yes, % [2, 18]: 0%
- Mortality/Euthanization Yes, Number [2, 18]: 0
- Significance to T01, mortality [2, 18]: Yes
- Mortality/Euthanization No, % [2, 18]: 100%
- Mortality/Euthanization No, Number [2, 18]: 23
- Mortality/Euthanization Yes, % [2, 19]: 8.3%
- Mortality/Euthanization Yes, Number [2, 19]: 2
- Significance to T01, mortality [2, 19]: Yes
- Mortality/Euthanization No, % [2, 19]: 91.7%
- Mortality/Euthanization No, Number [2, 19]: 22
- Mouse Murine Percent Survival [3]: 38%
- clinical efficacy in murine P. multocida infection [3]: clinically efficacious
- IC50 [4]: 181 µM
- MIC [5]: > 256 µg/mL
- IL-6 levels (plasma) in bovine M. haemolytica challenge [6]: reduction; also recorded: downregulated
- IC50 [7, 16]: 85 µM
- IC50 [7, 17]: 90 µM
- Treatment success ([8]; 0.5 mg/kg (T02) subcutaneous Day 0, natural field study to Day 7, saline 43.0%): 57.9%
- Treatment success ([8]; 2.5 mg/kg (T03) subcutaneous Day 0, natural field study to Day 7, saline 43.0%): 43.9%
- MIC [9]: > 64 µg/mL
- CD163 expression in treated cattle [10]: suppressed; also recorded: reduction; also recorded: downregulated
- EC50 [11]: 88 µM
